Results taken from patent EP1247803A2, “Indolinone compounds suitable for modulation of protein kinases” (Sugen, Inc., priority 1996, dated 1998).

Key:
FLK-1 receptor = target: T1, FLK-1 receptor (Mus musculus, UniProt P35918); test: FLK-1 ELISA (kinase activity of the FLK-1 receptor in FLK-1/NIH3T3 cells, VEGF stimulated); assay type: cell-based
T1 construct: expressed in transfected cells; host or cells: NIH3T3 C7#3
Experimental: An enzyme linked immunosorbent assay (ELISA) was conducted to measure the catalytic activity of the FLK-1 receptor and more specifically, the inhibition or activation of indolinone compounds on the catalytic activity of the FLK-1 receptor. Specifically, the following assay was conducted to measure catalytic activity of the FLK-1 receptor in FLK-1/NIH3T3 cells.
The materials and protocol for the FLK-1 ELISA assay are as described in International Patent Publication No. WO 96/40116, published December 19, 1996 by Tang et al.
Selected compounds were tested in the FLK-1 ELISA assay.
An ELISA assay was conducted to measure the kinase activity of the FLK-1 receptor and more specifically, the inhibition or activation of protein tyrosine kinase activity on the FLK-1 receptor. Specifically, the following assay was conducted to measure kinase activity of the FLK-1 receptor in FLK-1/NIH3T3 cells.
Materials. The following reagents and supplies were used: • a. […] Cappel goat anti-rabbit IgG (catalog no. 55641); • c. PBS (Gibco Catalog No. 450-1300EB); • d. TBSW Buffer (50 mM Tris (pH 7.2), 150 mM NaCl and 0.1% Tween-20); • e. Ethanolamine stock (10% ethanolamine (pH 7.0), stored at 4°C); • f. HNTG buffer (20mM HEPES buffer (pH 7.5), 150mM NaCl, 0.2% Triton X-100, and 10% glycerol); • g. EDTA (0.5 M (pH 7.0) as a 100X stock); • h. Sodium ortho vanadate (0.5 M as a 100X stock); • i. Sodium pyro phosphate (0.2M as a 100X stock); • j. NUNC 96 well V bottom polypropylene plates (Applied Scientific Catalog No. AS-72092); • k. NIH3T3 C7#3 Cells (FLK-1 expressing cells); • l. DMEM with 1X high glucose L Glutamine (catalog No. 11965-050); • m. FBS, Gibco (catalog no. 16000-028); • n. L-glutamine, Gibco (catalog no. 25030-016); • o. VEGF, PeproTech, Inc. (catalog no. 100-20)(kept as 1 µg/100 µl stock in Milli-Q dH2O and stored at -20°C; • p. Affinity purified anti-FLK-1 antiserum which can be obtained or purified as follows: • 1. Prepare a Tresyl-Activated Agarose/Flk-1-D column by incubating 10 ml of Tresyl-Activated Agarose with 20 mg of purified GST-Flk-1-D fusion protein in 100mM sodium bicarbonate (pH 9.6) buffer overnight at 4 °C. • 2. Wash the column once with PBS. • 3. Block the excess sites on the column with 2 M glycine for 2 hours at 4°C. • 4. Wash the column with PBS. • 5. Incubate the column with Rabbit anti-Flk-1D production bleed for 2 hours at 4 °C. • 6. Wash the column with PBS. • 7. Elute antiserum with 100 mM Citric Acid, pH3.0 and neutralize the eluate immediately with 2 M Tris, pH 9.0. • 8. Dialyize the eluate against PBS overnight at 4 °C with 3 changes of buffer (sample to buffer ratio is 1:100). • 9. Adjust the dialyized antiserum to 5% glycerol and store at -80 °C in small aliquotes. • q.
Protocol. The following protocol was used for conducting the assay: • 1. Coat Corning 96-well elisa plates with 1.0µg per well Cappel Anti-rabbit IgG antibody in 0.1M Na2CO3 pH 9.6. Bring final volume to 150 µl per well. Coat plates overnight at 4°C. Plates can be kept up to two weeks when stored at 4°C. • 2. Grow cells in Growth media(DMEM, supplemental with 2.0mM L-Glutamine, 10% FBS) in suitable culture dishes until confluent at 37°C, 5% CO2. • 3. Harvest cells by trypsinization and seed in Corning 25850 polystyrene 96-well roundbottom cell plates, 25.000 cells/well in 200µl of growth media. • 4. Grow cells at least one day at 37°C, 5% CO2. • 5. Wash cells with D-PBS 1X. • 6. Add 200µl/well of starvation media (DMEM, 2.0mM 1-Glutamine, 0.1% FBS). Incubate overnight at 37°C, 5% CO2. • 7. Dilute Compounds/Extracts 1:20 in polypropylene 96 well plates using starvation media. Dilute dimethylsulfoxide 1:20 for use in control wells. • 8. Remove starvation media from 96 well cell culture plates and add 162 µl of fresh starvation media to each well. • 9. Add 18µl of 1:20 diluted Compound/Extract dilution (from step 7) to each well plus the 1:20 dimethylsulfoxide dilution to the control wells (+/- VEGF), for a final dilution of 1:200 after cell stimulation. […]

MET = MET biochemical kinase assay; set-up: species or system human; concentration or dose not given beside the values
From the text: A met biochemical kinase assay may be performed for met generally as described above for other kinases by substituting that or the other kinases. In particular, ELISA plates are coated with goat anti-rabbit Fc antibodies, which are used to capture commercially available (from Santa Cruz Biotechnology) rabbit polyclonal antibodies to the cytoplasmic domain of human MET. […] The chimeric receptors, or MET, from these lysates are captured on the antibody coated plates. After washing away extraneous proteins, test compounds are added and an in vitro kinase assay is performed by addition of an appropriate kinase buffer (containing ATP, divalent metal ions, etc.). Incorporation of phosphate into the captured receptors is detected with an anti-phosphotyrosine antibody conjugate with horse radish peroxidase using TMB as a substrate for colorimetric detection.

T1 sequence (P35918 20-1345): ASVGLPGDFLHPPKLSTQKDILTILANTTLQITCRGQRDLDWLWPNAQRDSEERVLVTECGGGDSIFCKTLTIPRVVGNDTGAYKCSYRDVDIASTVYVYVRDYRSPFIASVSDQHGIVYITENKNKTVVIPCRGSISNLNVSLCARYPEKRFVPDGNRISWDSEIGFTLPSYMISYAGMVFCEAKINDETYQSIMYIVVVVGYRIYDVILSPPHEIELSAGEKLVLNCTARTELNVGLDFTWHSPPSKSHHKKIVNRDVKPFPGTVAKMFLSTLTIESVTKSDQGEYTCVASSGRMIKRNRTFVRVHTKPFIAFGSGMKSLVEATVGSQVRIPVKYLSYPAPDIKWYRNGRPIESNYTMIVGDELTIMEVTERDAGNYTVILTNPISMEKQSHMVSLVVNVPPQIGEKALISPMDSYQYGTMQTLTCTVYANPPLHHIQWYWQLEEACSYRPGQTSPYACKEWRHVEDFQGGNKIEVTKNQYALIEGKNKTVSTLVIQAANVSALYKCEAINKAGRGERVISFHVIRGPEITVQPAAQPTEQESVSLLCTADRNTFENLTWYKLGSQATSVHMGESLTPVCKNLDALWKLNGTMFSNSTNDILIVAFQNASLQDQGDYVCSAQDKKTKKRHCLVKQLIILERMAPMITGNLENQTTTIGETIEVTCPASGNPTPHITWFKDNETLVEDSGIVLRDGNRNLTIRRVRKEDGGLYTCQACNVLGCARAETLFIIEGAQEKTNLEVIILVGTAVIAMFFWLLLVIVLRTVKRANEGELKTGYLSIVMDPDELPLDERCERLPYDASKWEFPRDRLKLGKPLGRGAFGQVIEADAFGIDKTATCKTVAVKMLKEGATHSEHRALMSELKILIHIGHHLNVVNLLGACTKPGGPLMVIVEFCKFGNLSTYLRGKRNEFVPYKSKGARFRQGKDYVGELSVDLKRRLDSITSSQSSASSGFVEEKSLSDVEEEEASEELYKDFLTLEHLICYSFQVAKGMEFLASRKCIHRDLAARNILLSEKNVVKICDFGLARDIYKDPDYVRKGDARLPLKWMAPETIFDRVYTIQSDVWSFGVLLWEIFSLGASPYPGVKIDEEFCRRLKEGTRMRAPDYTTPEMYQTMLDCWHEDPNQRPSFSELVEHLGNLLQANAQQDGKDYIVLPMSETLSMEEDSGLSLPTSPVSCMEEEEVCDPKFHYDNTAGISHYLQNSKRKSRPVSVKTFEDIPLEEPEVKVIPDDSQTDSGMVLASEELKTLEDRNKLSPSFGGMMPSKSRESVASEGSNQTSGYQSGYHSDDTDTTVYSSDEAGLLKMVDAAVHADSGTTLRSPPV

Row | Compound | Fik Kinase %Inhibition (FLK-1 receptor) | Met Kinase % Inhibition (MET)
1 | CNS(=O)(=O)c1ccc2c(c1)C(=Cc1ccc(OCc3ccccc3)c(C(C)(C)C)c1)C(=O)N2 [10732/D06] | 16.3% | 24.3%
2 | CNS(=O)(=O)c1ccc2c(c1)C(=Cc1cc(Br)c(OC)c(C(C)(C)C)c1)C(=O)N2 [10732/D07] | 14.7% | 43.2%
3 | CNS(=O)(=O)c1ccc2c(c1)C(=Cc1cc(Br)c(OCc3ccccc3)c(C(C)(C)C)c1)C(=O)N2 [10732/D08] | 33.3% | 49.4%
4 | CNS(=O)(=O)c1ccc2c(c1)C(=Cc1cc(Cl)c(OC)c(C(C)(C)C)c1)C(=O)N2 [10732/D09] | 15.2% | 40.3%
5 | CNS(=O)(=O)c1ccc2c(c1)C(=Cc1cc(Cl)c(OCc3ccccc3)c(C(C)(C)C)c1)C(=O)N2 [10732/D10] | 25.5% | 33.1%
